These results are taken from US11390609B2, “Rho-associated protein kinase inhibitor, pharmaceutical composition comprising same, and preparation method and use thereof” (BEIJING TIDE PHARMACEUTICAL CO., LTD., priority 2017, dated 2022).

ROCK1, sequence (Q13464 whole entry, species assumed): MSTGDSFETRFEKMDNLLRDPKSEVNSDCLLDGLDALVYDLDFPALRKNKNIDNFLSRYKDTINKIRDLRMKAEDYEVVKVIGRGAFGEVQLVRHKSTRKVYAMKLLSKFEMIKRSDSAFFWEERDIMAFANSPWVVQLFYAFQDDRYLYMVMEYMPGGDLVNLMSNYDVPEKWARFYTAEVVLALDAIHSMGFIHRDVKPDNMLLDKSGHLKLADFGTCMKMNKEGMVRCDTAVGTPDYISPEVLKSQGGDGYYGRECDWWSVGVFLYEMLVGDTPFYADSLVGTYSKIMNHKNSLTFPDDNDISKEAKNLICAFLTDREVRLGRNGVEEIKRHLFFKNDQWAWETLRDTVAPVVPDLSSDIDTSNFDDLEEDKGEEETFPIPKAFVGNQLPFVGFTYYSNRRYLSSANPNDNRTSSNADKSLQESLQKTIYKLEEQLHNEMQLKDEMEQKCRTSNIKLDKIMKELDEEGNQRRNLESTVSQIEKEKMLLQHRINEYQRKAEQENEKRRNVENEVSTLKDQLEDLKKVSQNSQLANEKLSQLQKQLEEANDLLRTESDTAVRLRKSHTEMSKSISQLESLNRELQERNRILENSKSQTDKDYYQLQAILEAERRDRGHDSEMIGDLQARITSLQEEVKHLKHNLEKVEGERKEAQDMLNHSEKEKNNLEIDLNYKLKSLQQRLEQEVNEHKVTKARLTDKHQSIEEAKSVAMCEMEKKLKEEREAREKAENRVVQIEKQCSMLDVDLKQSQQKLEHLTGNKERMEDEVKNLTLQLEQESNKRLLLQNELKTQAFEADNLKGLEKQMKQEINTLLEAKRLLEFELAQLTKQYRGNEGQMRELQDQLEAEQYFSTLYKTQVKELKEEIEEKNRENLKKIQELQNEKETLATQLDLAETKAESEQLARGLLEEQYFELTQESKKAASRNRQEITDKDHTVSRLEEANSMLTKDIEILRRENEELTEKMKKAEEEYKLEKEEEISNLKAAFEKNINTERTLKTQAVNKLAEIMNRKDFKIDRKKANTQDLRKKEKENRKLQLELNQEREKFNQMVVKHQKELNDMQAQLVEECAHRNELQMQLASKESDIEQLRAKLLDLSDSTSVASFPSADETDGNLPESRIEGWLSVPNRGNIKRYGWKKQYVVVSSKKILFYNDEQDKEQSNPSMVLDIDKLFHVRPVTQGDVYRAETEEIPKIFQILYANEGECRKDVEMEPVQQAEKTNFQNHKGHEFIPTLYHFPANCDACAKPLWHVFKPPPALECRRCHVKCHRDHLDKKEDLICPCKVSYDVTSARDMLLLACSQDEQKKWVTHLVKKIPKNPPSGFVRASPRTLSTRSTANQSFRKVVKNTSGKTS

For this assay, the target named is ROCK1 (Homo sapiens (Human), UniProt Q13464). Nature of the assay: ROCK1 kinase IC50 assay (biological test method similar to the ROCK2 assay). The format is biochemical. The method, then:
The kinase IC50 was determined by a commercialized CISBIO kinase detection kit, HTRF KinEASE-STK S2 kit (62ST2PEC). ROCK2 (01-119) employed in the reaction was purchased from Carna Biosciences.
Before the assay, the following working solutions as needed were formulated with corresponding reagents according to the instruction of the kinase detection kit: 1×kinase buffer, 5×STK-52 substrate working solution (1.5 μM) and 5×ATP working solution (1.5 μM), 5×ROCK2 kinase working solution, 4×Streptavidin-XL665 working solution, and 4×STK-Ab-Cryptate 2 detection solution. Then the assay was performed according to the following procedure.
A solution of a compound at a concentration of 10000 nM was prepared with the 1×kinase buffer containing 2.5% DMSO. Gradient dilution of the solution of the compound was performed with the kinase buffer containing DMSO, so as to obtain solutions of a test compound at 9 different concentrations. In addition to wells of test compounds, a positive well (containing all the reagents except the compound) and a negative well (containing all the reagents except the test compound and kinase) were set. Except for the control wells (positive and negative wells), a solution of a test compound (4 μL) was added to each of the reaction wells, and a solution of 2.5% DMSO was added to the control wells. Then the substrate ([…], 2 μL. 5×STK-S2 substrate working solution) was added to each of the reaction wells. The 5×ROCK2 kinase working solution (2 μL, containing 1.4 ng ROCK2 kinase) was added to each of the reaction wells except for the negative well, the volume of which was made up with the 1×kinase buffer (2 μL). The 5×ATP working solution (2 μL) was added to each of the reaction wells, and the mixtures were incubated at room temperature for 2 hours. After the kinase reaction was complete, the 4×Streptavidin-XL665 working solution was added to each of the reaction wells, the solutions were mixed, followed by immediate addition of the 4×STK-Ab-Cryptate 2 detection solution (5 μL), and the mixtures were incubated at room temperature for 1 hour. The fluorescence signal was read on ENVISION (Perkinelmer) (excitation wavelength: 320 nm, and emission wavelength: 665 nm and 615 nm). The inhibitory rate in each well was calculated based on the fluorescence intensity value: ER (Emission Ratio)=(fluorescence intensity at 665 nm/fluorescence intensity at 615 nm); inhibitory rate=(ERpositive−ERtest compound)/(ERpositive−ERnegative)*100%. Curves were plotted and fitted to obtain the median inhibitory concentration (IC50) of each teat compound with the PRISM 5.0 software.
According to a biological test method similar to the above, the IC50 values of the compounds on ROCK1 were tested.
A word on the IC50: it is the concentration that gives 50% inhibition. On to `CCN(CC)C(=O)c1cc2ccc(-c3ncc(OC)c(Nc4ccc(-c5cn[nH]c5)cc4)n3)cc2[nH]1` [TDI01823, 6-(4-((4-(1H-pyrazol-4-yl)phenyl)-amino)-5-methoxy-pyrimidin-2-yl)-N,N-diethyl-1H-indole-2-carboxamide], for which the IC50 was more than 10 µM. With `CN(C(=O)c1cc2ccc(-c3nccc(Nc4ccc(-c5cn[nH]c5)cc4)n3)cc2[nH]1)C(CO)CO` [TDI01344-2A, 6-(4-((4-(1H-pyrazol-4-yl)phenyl)-amino)-pyrimidin-2-yl)-N-(1,3-dihydroxy-propan-2-yl)-N-methyl-1H-indole-2-carboxamide], the IC50 is 4.21 µM. The compound `Cc1c(Nc2ccnc(-c3ccc4cc(C(=O)Nc5ccnnc5)[nH]c4c3)n2)ccc2[nH]ncc12` [TDI01276, 6-(4-((4-methyl-1H-indazol-5-yl)amino)-pyrimidin-2-yl)-N-(pyridazin-4-yl)-1H-indole-2-carboxamide] came in with an IC50 of more than 10 µM.

With `CC(C)NC(=O)C1COc2ccc(-c3nccc(Nc4ccc5[nH]ncc5c4)n3)cc2O1` (centres unmarked) [TDI01103, 7-(4-((1H-indazol-5-yl)amino)pyrimidin-2-yl)-N-isopropyl-2,3-dihydrobenzo[b][1,4]dioxine-2-carboxamide], half-maximal inhibition (IC50) required 2.06 µM. In turn, `Cc1cnc(-c2ccc3cc(C(=O)Nc4ccnnc4)[nH]c3c2)nc1Nc1ccc2[nH]ncc2c1` [TDI01250, 6-(4-((1H-indazol-5-yl)amino)-5-methyl-pyrimidin-2-yl)-N-(pyridazin-4-yl)-1H-indole-2-carboxamide] registered an IC50 of more than 10 µM. For `CN(CC(F)(F)F)C(=O)c1cc2ccc(-c3ncc(F)c(Nc4ccc(-c5cn[nH]c5)cc4)n3)cc2[nH]1` [TDI01426, 6-(4-((4-(1H-pyrazol-4-yl)phenyl)amino)-5-fluoropyrimidin-2-yl)-N-methyl-N-(2,2,2-trifluoroethyl)-1H-indole-2-carboxamide], the IC50 is more than 10 µM. The figure for `CN(CCC#N)C(=O)c1cc2ccc(-c3nccc(Nc4ccc(-c5cn[nH]c5)cc4)n3)cc2[nH]1` [TDI01442, 6-(4-((4-(1H-pyrazol-4-yl)phenyl)amino)pyrimidin-2-yl)-N-(2-cyanoethyl)-N-methyl-1H-indole-2-carboxamide] is more than 10 µM. To `O=C(Nc1ccnnc1)c1cc2ccc(-c3nccc(Nc4ccc5[nH]ncc5c4)n3)cc2s1` [TDI01116, 6-(4-((1H-indazol-5-yl)amino)-pyrimidin-2-yl)-N-(pyridazin-4-yl)benzo[b]-thiophene-2-carboxamide] belongs more than 10 µM; to `O=C(NC1CC1)c1cc2ccc(-c3nccc(Nc4ccc(-c5cn[nH]c5)cc4)n3)cc2[nH]1` [TDI01324, 6-(4-((4-(1H-pyrazol-4-yl)phenyl)-amino)-pyrimidin-2-yl)-N-cyclopropyl-1H-indole-2-carboxamide], 1.74 µM. The figure for `CC(C)NC(=O)c1cc2ccc(-c3nccc(Nc4ccc5[nH]ncc5c4)n3)cc2s1` [TDI01104, 6-(4-((1H-indazol-5-yl)amino)pyrimidin-2-yl)-N-isopropylben-zo[b]thiophene-2-carboxamide] is 0.87 µM; for `O=C(Nc1ccnnc1Cl)c1cc2ccc(-c3nccc(Nc4ccc5[nH]ncc5c4)n3)cc2[nH]1` [TDI01180] it is 2.78 µM; for `CN1CCN(C(=O)c2cc3ccc(-c4nccc(Nc5ccc(-c6cn[nH]c6)cc5)n4)cc3[nH]2)CC1` [TDI01343, (6-4(-((4-(1H-pyrazol-4-yl)phenyl)-amino)-pyrimidin-2-yl)-1H-indol-2-yl)(4-methyl-piperazin-1-yl)methanone] it is 7.11 µM. `CN(C(=O)c1cc2ccc(-c3nccc(Nc4ccc(-c5cn[nH]c5)cc4)n3)cc2[nH]1)C1CCOCC1` [TDI01381, 6-(4-((4-(1H-pyrazol-4-yl)phenyl)amino)pyrimidin-2-yl)-N-methyl-N-(tetrahydro-2H-pyran-4-yl)-1H-indole-2-carboxamide]: the half-inhibitory concentration (IC50) was determined as 4.11 µM.

Turning to `CC(C)NC(=O)c1cc2ccc(-c3nc(Nc4ccc5[nH]ncc5c4)c4sccc4n3)cc2[nH]1` [TDI01141, 6-(4-((1H-indazol-5-yl)amino)thieno[3,2-d]pyrimidin-2-yl)-N-isopropyl-1H-indole-2-carboxamide], 0.839 µM corresponded to half-maximal inhibition (IC50).

The compound `O=C(NC1CCOCC1)c1cc2ccc(-c3nccc(Nc4ccc5[nH]ncc5c4)n3)cc2[nH]1` [TDI01291, 6-(4-((1H-indazol-5-yl)amino)-pyrimidin-2-yl)-N-(tetrahydro-2H-pyran-4-yl)-1H-indole-2-carboxamide] returned an IC50 of 0.573 µM. `O=C(Nc1ccccn1)c1cc2ccc(-c3nccc(Nc4ccc5[nH]ncc5c4)n3)cc2[nH]1` [TDI01311, 6-(4-((1H-indazol-5-yl)amino)pyrimidin-2-yl)-N-(pyridin-2-yl)-1H-indole-2-carboxamide]: the IC50 is more than 10 µM. The figure for `CCN(CCO)C(=O)c1cc2ccc(-c3nccc(Nc4ccc(-c5cn[nH]c5)cc4)n3)cc2[nH]1` [TDI01415, 6-(4-((4-(1H-pyrazol-4-yl)phenyl)-amino)-pyrimidin-2-yl)-N-ethyl-N-(2-hydroxyethyl)-1H-indole-2-carboxamide] is 3.71 µM; for `CN(C(=O)c1cc2ccc(-c3nccc(Nc4ccc(-c5cn[nH]c5)cc4)n3)cc2[nH]1)C1CC(O)C1` (centres unmarked) [TDI01418, 6-(4-((4-(1H-pyrazol-4-yl)phenyl)amino)pyrimidin-2-yl)-N-(3-hydroxycyclobutyl)-N-methyl-1H-indole-2-carboxamide] it is 5.38 µM.

In the case of `O=C(NC1CCOC1)c1cc2ccc(-c3nc(Nc4ccc(-c5cn[nH]c5)cc4)c4sccc4n3)cc2[nH]1` (centres unmarked) [TDI01423, 6-(4-((4-(1H-pyrazol-4-yl)phenyl)-amino)-thieno-[3,2-d]-pyrimidin-2-yl)-N-(tetrahydro-furan-3-yl)-1H-indole-2-carboxamide], the IC50 was more than 10 µM. Take `O=C(Nc1nncs1)c1cc2ccc(-c3nccc(Nc4ccc5[nH]ncc5c4)n3)cc2[nH]1` [TDI01247, 6-(4-((1H-indazol-5-yl)amino)pyrimidin-2-yl)-N-(1,3,4-thiadiazol-2-yl)-1H-indole-2-carboxamide]: the IC50 was more than 10 µM. To `O=C(NC1CCOC1)c1cc2ccc(-c3nccc(Nc4ccc(-c5cn[nH]c5)cc4)n3)cc2[nH]1` (centres unmarked) [TDI01337, 6-(4-((4-(1H-pyrazol-4-yl)phenyl)-amino)-pyrimidin-2-yl)-N-(tetrahydro-furan-3-yl)-1H-indole-2-carboxamide] belongs 2.76 µM; to `CC(C)NC(=O)c1cc2ccc(-c3nc(Nc4ccc(-c5cn[nH]c5)cc4)c4sccc4n3)cc2[nH]1` [TDI01370, 6-(4-((4-(1H-pyrazol-4-yl)phenyl)-amino)-thieno[3,2-d]pyrimidin-2-yl)-N-isopropyl-1H-indole-2-carboxamide], 1.49 µM.

`O=C(c1cc2ccc(-c3nccc(Nc4ccc(-c5cn[nH]c5)cc4)n3)cc2[nH]1)N1CCOC[C@H]1CO` [TDI01853, (R)-(6-(4-((4-(1H-pyrazol-4-yl)phenyl)-amino)-pyrimidin-2-yl)-1H-indol-2-yl)(3-(hydroxy-methyl)-morpholino)-methanone] displayed an IC50 of 2.83 µM. `O=C(Nc1ccncc1Cl)c1cc2ccc(-c3nccc(Nc4ccc5[nH]ncc5c4)n3)cc2[nH]1` [TDI01290, 6-(4-((1H-indazol-5-yl)amino)-pyrimidin-2-yl)-N-(3-chloropyridin-4-yl)-1H-indole-2-carboxamide] displayed an IC50 of more than 10 µM. To `N#Cc1cnccc1NC(=O)c1cc2ccc(-c3nccc(Nc4ccc(-c5cn[nH]c5)cc4)n3)cc2[nH]1` [TDI01829B, 6-(4-((4-(1H-pyrazol-4-yl)phenyl)amino)pyrimidin-2-yl)-N-(3-cyanopyridin-4-yl)-1H-indole-2-carboxamide] belongs more than 10 µM.

Compound `O=C(Nc1ccnnc1)c1cc2ccc(-c3ncnc(Nc4ccc5[nH]ncc5c4)n3)cc2[nH]1` [TDI01167, 6-(4-((1H-indazol-5-yl)amino)-1,3,5-triazin-2-yl)-N-(pyridazin-4-yl)-1H-indole-2-carboxamide] yielded a half-maximal inhibitory concentration (IC50) of more than 10 µM. For `O=C(N1Cc2ccc(-c3nccc(Nc4ccc(-c5cn[nH]c5)cc4)n3)cc2C1)N1CC(F)(F)C1` [TDI01467], the IC50 is more than 10 µM.

In turn, `O=C(Nc1cccnc1)c1cc2ccc(-c3nccc(Nc4ccc(-c5cn[nH]c5)cc4)n3)cc2[nH]1` [TDI01397, 6-(4-((4-(1H-pyrazol-4-yl)phenyl)-amino)-pyrimidin-2-yl)-N-(pyridin-3-yl)-1H-indole-2-carboxamide] registered an IC50 of 6 µM. In other words, the single-digit micromolar range. In turn, `CC(C)NC(=O)N1Cc2ccc(-c3nccc(Nc4ccc5[nH]ncc5c4)n3)cc2C1` [TDI01312, 5-(4-((1H-indazol-5-yl)amino)pyrimidin-2-yl)-N-isopropylisoindoline-2-carboxamide] displayed an IC50 of 1.84 µM. Against the preceding compound, the IC50 is about 3.3-fold lower.
